# Assay results published in US8153795B2, “Substituted 1-oxa-3,8-diazaspiro[4.5]-decan-2-one-compounds and the use thereof for producing drugs” (Gruenenthal GmbH, priority 2005, dated 2012).
# Target: T1, 5-HT transporter (Rattus norvegicus, UniProt P31652)
# T1 construct: from tissue; host or cells: rat brain synaptosomes (P2 fraction) from medulla and pons
# Test: 5-HT uptake inhibition in rat brain synaptosomes (medulla and pons), [3H]-5-HT
# Type: biochemical
# Source text: a) Method for Determining Noradrenalin and 5-HT Uptake Inhibition:
# Synaptosomes from rat brain regions are freshly isolated for in vitro studies, as described in the publication “The isolation of nerve endings from brain” by E. G. Gray and V. P. Whittaker, J. Anatomy 96, pages 79-88, 1962. The corresponding literature description is hereby introduced as a reference and is deemed to be part of the disclosure.
# The tissue (hypothalamus for the determination of noradrenalin uptake inhibition and medulla and pons for the determination of 5-HT uptake inhibition) is homogenised in ice-cooled 0.32 M sucrose (100 mg of tissue/1 mL) in a glass homogeniser with Teflon pestle using five complete up and down strokes at 840 revolutions/minute.
# The homogenate is centrifuged at 4° C. for 10 minutes at 1000 g. After subsequent centrifugation at 17000 g for 55 minutes, the synaptosomes (P2 fraction) are obtained, which are resuspended in 0.32 M […] (0.5 mL/100 mg of original weight).
# The particular uptake is measured in a 96-well microtitre plate. The volume is 250 μl and the incubation proceeds at room temperature (approx. 20-25° C.) under an O2 atmosphere.
# The incubation time is 7.5 minutes for [^3H]-NA and 5 minutes for [^3H]-5-HT. The 96 samples are then filtered through a Unifilter GF/B® microtitre plate (Packard) and washed with 200 mL of incubated buffer using a “Brabdel MPXRI-96T Cell-Harvester”. The Unifilter GF/B plate is dried for 1 hour at 55° C. The plate is then sealed with a Back Seal® (Packard) and 35 μl of scintillation fluid are added per well (Ultima Gold®, Packard). After sealing with a top Seal® (Packard) and establishing an equilibrium (around 5 hours), radioactivity is determined in a “Trilux 1450 Microbeta” (Wallac).
# The quantity of protein used in the above determination corresponds to the values known from the literature, as for example described in “Protein measurement with the folin phenol reagent”, Lowry et al., J. Biol. Chem., 193, 265-275, 1951.
# A detailed description of the method may additionally be found in the literature, for example in M. Ch. Frink, H.-H. Hennies, W. Engelberger, M. Haurand and B. Wilffert (1996) Arzneim.-Forsch./Drug Res. 46 (III), 11, 1029-1036.
# T1 sequence (P31652 whole entry): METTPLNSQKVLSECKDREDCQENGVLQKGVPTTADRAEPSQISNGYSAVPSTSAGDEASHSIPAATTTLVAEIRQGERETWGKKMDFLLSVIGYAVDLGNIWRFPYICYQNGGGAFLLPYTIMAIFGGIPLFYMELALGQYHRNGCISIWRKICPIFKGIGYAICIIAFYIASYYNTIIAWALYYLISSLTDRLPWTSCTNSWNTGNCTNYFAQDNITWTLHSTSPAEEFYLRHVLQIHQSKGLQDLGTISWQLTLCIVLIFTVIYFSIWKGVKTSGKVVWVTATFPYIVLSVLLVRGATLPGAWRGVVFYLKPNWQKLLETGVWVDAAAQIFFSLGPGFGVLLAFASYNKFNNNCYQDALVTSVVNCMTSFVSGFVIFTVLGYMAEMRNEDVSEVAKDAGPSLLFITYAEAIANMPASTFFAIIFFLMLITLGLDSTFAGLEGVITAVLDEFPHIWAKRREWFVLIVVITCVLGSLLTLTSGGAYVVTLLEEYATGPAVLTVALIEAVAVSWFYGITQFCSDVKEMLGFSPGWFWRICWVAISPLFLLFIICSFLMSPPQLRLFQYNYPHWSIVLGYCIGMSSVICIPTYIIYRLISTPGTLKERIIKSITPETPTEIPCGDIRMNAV
row,Structure (SMILES),inhibition at 10 µM
1,"Cc1ccc(CN2CC3(CCN(C(=S)Nc4c(F)c(F)c(F)c(F)c4F)CC3)OC2=O)cc1 [Example 1, 3-(4-methylbenzyl)-2-oxo-1-oxa-3,8-diazaspiro[4.5]decane-8-carbothioic acid pentafluorophenylamide]",66%
2,"O=C1OC2(CCN(C(=S)NCc3ccccc3)CC2)CN1Cc1ccc(C(F)(F)F)cc1 [Example 3, 2-oxo-3-(4-trifluoromethylbenzyl)-1-oxa-3,8-diazaspiro[4.5]decane-8-carbothioic acid benzylamide]",69%
3,"Cc1cc(C)cc(CN2CC3(CCN(C(=S)NCC4CCCO4)CC3)OC2=O)c1 (stereo not shown) [Example 4, 3-(3,5-dimethylbenzyl)-2-oxo-1-oxa-3,8-diazaspiro[4.5]decane-8-carbothioic acid (tetrahydrofuran-2-ylmethyl)amide]",76%
4,"O=C1OC2(CCN(C(=S)NCc3ccccc3)CC2)CN1Cc1ccc(F)c(F)c1 [Example 11, 3-(3,4-difluorobenzyl)-2-oxo-1-oxa-3,8-diazaspiro[4.5]decane-8-carbothioic acid benzylamide]",58%
5,"CC(NC(=S)N1CCC2(CC1)CN(Cc1ccccc1-c1ccccc1)C(=O)O2)c1ccccc1 (stereo not shown) [Example 12, 3-biphenyl-2-ylmethyl-2-oxo-1-oxa-3,8-diazaspiro[4.5]decane-8-carbothioic acid (1-phenylethyl)amide]",60%
6,"O=C1OC2(CCN(C(=S)NCc3ccccc3)CC2)CN1Cc1cccc(Br)c1 [Example 16, 3-(3-bromobenzyl)-2-oxo-1-oxa-3,8-diazaspiro[4.5]decane-8-carbothioic acid benzylamide]",54%
7,"COc1ccc([N+](=O)[O-])cc1CN1CC2(CCN(C(=S)NCC3CCCCC3)CC2)OC1=O [Example 21, 3-(2-methoxy-5-nitrobenzyl)-2-oxo-1-oxa-3,8-diazaspiro[4.5]decane-8-carbothioic acid cyclohexylmethylamide]",55%
8,"N#Cc1cccc(CN2CC3(CCN(C(=S)NCc4ccc(Cl)cc4)CC3)OC2=O)c1 [Example 22, 3-(3-cyanobenzyl)-2-oxo-1-oxa-3,8-diazaspiro[4.5]decane-8-carbothioic acid 4-chlorobenzylamide]",48%
9,"COc1ccc([N+](=O)[O-])cc1CN1CC2(CCN(C(=S)NCc3ccccc3)CC2)OC1=O [Example 23, 3-(2-methoxy-5-nitrobenzyl)-2-oxo-1-oxa-3,8-diazaspiro[4.5]decane-8-carbothioic acid benzylamide]",60%
10,"O=C(Nc1cc(Cl)ccc1Cl)N1CCC2(CC1)CN(Cc1ccccc1-c1ccccc1)C(=O)O2 [Example 25, 3-biphenyl-2-ylmethyl-2-oxo-1-oxa-3,8-diazaspiro[4.5]decane-8-carboxylic acid (2,5-dichlorophenyl)amide]",53%
11,"COc1ccc([N+](=O)[O-])cc1CN1CC2(CCN(C(=O)Nc3cc(F)ccc3F)CC2)OC1=O [Example 26, 3-(2-methoxy-5-nitrobenzyl)-2-oxo-1-oxa-3,8-diazaspiro[4.5]decane-8-carboxylic acid (2,5-difluorophenyl)amide]",70%
12,"CCOC(=O)c1ccc(NC(=O)N2CCC3(CC2)CN(Cc2ccc4ccccc4c2)C(=O)O3)cc1 [Example 30, 4-[(3-naphthalen-2-ylmethyl-2-oxo-1-oxa-3,8-diazaspiro[4.5]decane-8-carbonyl)amino]benzoic acid ethyl ester]",65%
13,"N#Cc1ccccc1CN1CC2(CCN(C(=O)Nc3cc(F)ccc3F)CC2)OC1=O [Example 32, 3-(2-cyanobenzyl)-2-oxo-1-oxa-3,8-diazaspiro[4.5]decane-8-carboxylic acid (2,5-difluorophenyl)amide]",56%
14,"N#Cc1cccc(NC(=O)N2CCC3(CC2)CN(Cc2ccc(SC(F)(F)F)cc2)C(=O)O3)c1 [Example 38, 2-oxo-3-(4-trifluoromethylsulfanylbenzyl)-1-oxa-3,8-diazaspiro[4.5]decane-8-carboxylic acid (3-cyanophenyl)amide]",52%
15,"Cc1ccc(NC(=O)N2CCC3(CC2)CN(Cc2ccc(SC(F)(F)F)cc2)C(=O)O3)cc1[N+](=O)[O-] [Example 40, 2-oxo-3-(4-trifluoromethylsulfanylbenzyl)-1-oxa-3,8-diazaspiro[4.5]decane-8-carboxylic acid (4-methyl-3-nitrophenyl)amide]",54%
16,"CCCCOc1ccc(NC(=O)N2CCC3(CC2)CN(Cc2ccc(I)cc2)C(=O)O3)cc1 [Example 41, 3-(4-iodobenzyl)-2-oxo-1-oxa-3,8-diazaspiro[4.5]decane-8-carboxylic acid (4-butoxyphenyl)amide]",49%
17,"CC(NC(=O)N1CCC2(CC1)CN(Cc1ccccc1)C(=O)O2)c1ccccc1 (stereo not shown) [Example 43, 3-benzyl-2-oxo-1-oxa-3,8-diazaspiro[4.5]decane-8-carboxylic acid (1-phenylethyl)amide]",49%
18,"Cc1ccc(CN2CC3(CCN(C(=O)NCCc4ccccc4)CC3)OC2=O)cc1 [Example 45, 3-(4-methylbenzyl)-2-oxo-1-oxa-3,8-diazaspiro[4.5]decane-8-carboxylic acid phenethylamide]",51%
19,"COc1cccc(NC(=O)N2CCC3(CC2)CN(Cc2ccccc2C(F)(F)F)C(=O)O3)c1 [Example 46, 2-oxo-3-(2-trifluoromethylbenzyl)-1-oxa-3,8-diazaspiro[4.5]decane-8-carboxylic acid (3-methoxyphenyl)amide]",43%
20,"COc1ccc(NC(=O)N2CCC3(CC2)CN(Cc2ccc(C#N)cc2)C(=O)O3)cc1 [Example 47, 3-(4-cyanobenzyl)-2-oxo-1-oxa-3,8-diazaspiro[4.5]decane-8-carboxylic acid (4-methoxyphenyl)amide]",49%
21,"CC(NC(=O)N1CCC2(CC1)CN(Cc1ccc(C(F)(F)F)cc1)C(=O)O2)c1cccc2ccccc12 (stereo not shown) [Example 48, 2-oxo-3-(4-trifluoromethylbenzyl)-1-oxa-3,8-diazaspiro[4.5]decane-8-carboxylic acid (1-naphthalen-1-yl-ethyl)amide]",43%
22,"Cc1ccc(NC(=O)N2CCC3(CC2)CN(Cc2ccc(I)cc2)C(=O)O3)cc1[N+](=O)[O-] [Example 50, 3-(4-iodobenzyl)-2-oxo-1-oxa-3,8-diazaspiro[4.5]decane-8-carboxylic acid (4-methyl-3-nitrophenyl)amide]",64%
23,"COc1ccc([N+](=O)[O-])cc1CN1CC2(CCN(C(=O)Nc3cccc(C#N)c3)CC2)OC1=O [Example 51, 3-(2-methoxy-5-nitrobenzyl)-2-oxo-1-oxa-3,8-diazaspiro[4.5]decane-8-carboxylic acid (3-cyanophenyl)amide]",89%
24,"CC(NC(=O)N1CCC2(CC1)CN(Cc1ccccc1C(F)(F)F)C(=O)O2)c1cccc2ccccc12 (stereo not shown) [Example 54, 2-oxo-3-(2-trifluoromethylbenzyl)-1-oxa-3,8-diazaspiro[4.5]decane-8-carboxylic acid (1-naphthalen-1-yl-ethyl)amide]",75%
25,"COc1ccc(OC)c(NC(=O)N2CCC3(CC2)CN(Cc2ccc4ccccc4c2)C(=O)O3)c1 [Example 55, 3-naphthalen-2-ylmethyl-2-oxo-1-oxa-3,8-diazaspiro[4.5]decane-8-carboxylic acid (2,5-dimethoxyphenyl)amide]",61%
